Measured values: patent US20260355168A1, “COMPOSITIONS AND METHODS FOR TREATING AND DETECTING CANCER” (CASE WESTERN RESERVE UNIVERSITY, priority 2022, published 2026)
“Also recorded” adds a separate entry of the source.

Tests used:
[1] = test system: LN229 tumor xenograft; assay: Human glioma flank tumor (LN229) growth assay in nude mice; type: in vivo, athymic nude mice; human LN229 cells
Protocol: FIGS. 9(A-C) illustrates a plot and images of the results of the human glioma tumor model in mice. LN229-flank tumors (n=6 per treatment group) established in nude mice were injected with vehicle or compound once a week for three weeks. A. Tumor sizes were measured once a week for four weeks and normalized to their starting sizes. Data is presented as average percent growth±s.e.m. Between-group comparisons were made using Student's t-test. Differences were considered significant at p<0.05. […] Representative images of H&E-stained sections from tumors (two per treatment group) harvested at 4-weeks are shown.
Glioma-cell tumor xenografts were prepared as previously described. Briefly, LN229 cells (2×10^6 per injection) mixed with Matrigel (Corning, Corning Inc., Corning, NY, USA) were subcutaneously injected into the flank of athymic nude (FoxN1^nu/Foxn1^nu) female mice bred by the Case Western Reserve University Athymic Animal Core Facility or obtained from The Jackson Laboratory (Bar Harbor, ME). Experiments were approved by our IACUC committee. Twelve days post tumor-cell-injection, 247678835 or DMSO was diluted into PBS to give final concentrations of 2 mM or 20%, respectively, and 25 μl was injected into the center of each flank tumor. Additional compound or DMSO injections were given 7 and 14 days after the first injection, and tumor volumes [(length×width^2)/2] were recorded once a week for 4 weeks. At four weeks, mice were sacrificed, and tumors were isolated, fixed in 10% buffered formalin, and prepared for paraffin sectioning. Five micron-thick sections were cut, stained with H&E, and images captured with a Hamamatsu Nanozoomer S60 Slide Scanner (Hama-matsu Photonics, K.K., Bridgewater, NJ, USA).
Human LN229 glioma cells were subcutaneously injected into the flanks of twelve athymic nude mice (n=6 per treatment group). Once tumors were established (12-days post cell injection), DMSO or 247678835 was injected into the center of each tumor once a week for three weeks, and tumor volumes were calculated from caliper measurements. […] Mice were sacrificed 4 weeks after the first treatment, and tumors were harvested, fixed, sectioned, and stained with H&E.

[2] = target: PTPμ (Homo sapiens, UniProt P28827); assay: In vitro phosphatase assay, GST-PTPμ_intra, malachite green; type: biochemical; design: A2: GST-PTPμ_intra, entire intracellular domain, aa 765-1449 (phosphatase)
Protocol: FIG. 8 illustrates a histogram showing the results of the phosphatase assays. […] The enzyme was pretreated on ice for 10 min, and the reactions started by addition of a peptide substrate and incubation at 30 °C. The amount of released phosphate was measured at 15 min using the malachite green reaction and normalized to that of the vehicle-treated control. Data is presented as percentages±s.e.m. of the indicated number of independent experiments. Differences were assessed using the Student's t-test with comparison to an untreated control sample (as all DMSO samples were set to 100% release). A difference was deemed significant at p<0.05.
A GST fusion protein containing the intracellular domain of PTPμ (B5: aa 765-1449) (PTPμ_intra) was prepared as described. Phosphatase reactions (50 μl total volume) were assembled on ice by mixing 0.4 μg GST-PTPμ_intra with phosphatase buffer (25 mM Hepes pH 7.4, 50 mM NaCl and 2 mM DTT) and compounds (100 μM) or DMSO (1%). […] Colorimetric product was allowed to develop for 15 min at room temperature, and the absorbance of the samples and a standard curve of free phosphate (assembled per the manufacturer's instructions) were read at 600 nm on a Synergy HT Microplate Reader (BioTek Instruments Inc., Winooski, Vermont). The amount of released phosphate was calculated, normalized to that released by the DMSO control sample, and expressed as a percent. […]

PTPμ, sequence (P28827 21-1452): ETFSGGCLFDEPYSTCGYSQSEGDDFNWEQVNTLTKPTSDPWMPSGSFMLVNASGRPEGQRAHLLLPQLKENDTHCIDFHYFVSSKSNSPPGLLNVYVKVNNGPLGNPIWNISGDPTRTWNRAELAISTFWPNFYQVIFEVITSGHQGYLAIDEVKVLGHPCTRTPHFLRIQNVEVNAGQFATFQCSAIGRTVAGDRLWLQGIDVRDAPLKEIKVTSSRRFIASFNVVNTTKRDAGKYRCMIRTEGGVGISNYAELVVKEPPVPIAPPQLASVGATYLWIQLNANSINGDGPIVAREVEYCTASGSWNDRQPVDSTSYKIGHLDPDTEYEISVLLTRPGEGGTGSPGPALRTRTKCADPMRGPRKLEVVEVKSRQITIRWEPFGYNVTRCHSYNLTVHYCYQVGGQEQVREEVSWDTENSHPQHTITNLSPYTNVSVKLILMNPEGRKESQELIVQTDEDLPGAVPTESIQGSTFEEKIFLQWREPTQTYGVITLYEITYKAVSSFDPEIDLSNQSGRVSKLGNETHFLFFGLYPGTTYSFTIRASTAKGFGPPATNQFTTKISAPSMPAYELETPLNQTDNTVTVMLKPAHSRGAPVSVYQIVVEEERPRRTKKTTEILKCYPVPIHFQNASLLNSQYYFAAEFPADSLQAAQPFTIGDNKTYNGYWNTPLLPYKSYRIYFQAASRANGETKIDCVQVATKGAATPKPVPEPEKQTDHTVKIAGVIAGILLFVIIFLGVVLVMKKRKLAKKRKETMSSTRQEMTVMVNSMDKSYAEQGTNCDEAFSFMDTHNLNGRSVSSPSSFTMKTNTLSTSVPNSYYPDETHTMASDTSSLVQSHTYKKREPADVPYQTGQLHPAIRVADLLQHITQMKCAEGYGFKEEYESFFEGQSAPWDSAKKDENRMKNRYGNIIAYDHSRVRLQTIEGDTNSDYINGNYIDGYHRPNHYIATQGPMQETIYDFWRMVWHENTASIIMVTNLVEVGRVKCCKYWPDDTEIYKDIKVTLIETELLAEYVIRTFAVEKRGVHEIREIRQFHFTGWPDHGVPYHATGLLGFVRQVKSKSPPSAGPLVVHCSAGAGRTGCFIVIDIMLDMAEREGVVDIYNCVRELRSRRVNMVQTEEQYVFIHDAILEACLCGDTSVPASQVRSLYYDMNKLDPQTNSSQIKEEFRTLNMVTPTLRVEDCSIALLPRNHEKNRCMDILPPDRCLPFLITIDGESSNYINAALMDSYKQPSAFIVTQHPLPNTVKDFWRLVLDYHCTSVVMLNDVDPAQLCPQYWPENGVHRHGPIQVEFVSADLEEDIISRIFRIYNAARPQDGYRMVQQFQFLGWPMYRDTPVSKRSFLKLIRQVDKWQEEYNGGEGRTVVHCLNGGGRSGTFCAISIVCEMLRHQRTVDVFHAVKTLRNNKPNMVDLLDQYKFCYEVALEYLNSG

| SMILES | Tumor size relative to starting size ([1]; 3 weeks post first injection, intratumoral once a week, 2 mM, 25 μl) [×] | Effect on tumor growth after treatment stopped ([1]; 4 weeks post first injection, in words) | Tumor histology (H&E) ([1]; tumors harvested at 4 weeks) | Effect on tumor growth ([1]; up to 3 weeks post first injection, intratumoral, in words) | Interference with malachite green dye ([2]; apparent reaction product in absence of enzyme/substrate) | Effect on PTPμ phosphatase activity (released phosphate) ([2]; role: inhibitor, 100 μM, peptide substrate 60 μM, 30 °C, pH 7.4) |
| --- | --- | --- | --- | --- | --- | --- |
| COc1cc(C)ccc1OCC(=O)Nc1nc(-c2c[nH]c(C(N)=O)c2)cs1 [Compound 247678835] | 1.3 | appeared to rebound; also recorded: no longer statistically appreciable at 4 weeks post-injection | generally appeared less ‘cellular’ than DMSO-treated controls; also recorded: appeared smaller and less cellular | inhibit glioma-cell growth in a human glioma tumor model in mice; also recorded: inhibit flank tumor growth in vivo; also recorded: able to affect tumor growth in vivo; also recorded: slowed tumor growth, producing a statistically significant growth reduction by 3 weeks post-first injection | reacted with the malachite green dye, giving an apparent reaction product in the absence of enzyme/substrate; also recorded: interacted with the dye used to measure the release of free phosphate |  |
| O=C(NCc1nc(-c2ccncc2)no1)c1ccc(Cl)c(S(=O)(=O)NCc2ccccc2)c1 [Compound 247678791] |  |  |  |  |  | modestly inhibit PTPμ's catalytic activity in vitro; also recorded: modest, but highly consistent reduction in released phosphate; also recorded: modestly inhibit the phosphatase activity of a PTPμ-intracellular construct; also recorded: modest, but statistically significant, reduction on enzymatic activity |
